Experimental findings from patent US11840528B2 (Hoffmann-La Roche Inc., priority 2018, dated 2023) are described below.

Assay [1] has as its target T1, h-GABA-A α5β3γ2 (Homo sapiens, UniProt P18507+P31644). In words: [3H]flumazenil competition binding assay, membranes of HEK293 cells expressing GABAA receptors. As to conditions: displacement of [3H]-Flumazenil 0.5 nM, HEK293 cells expressing human receptors, mean of two determinations; Table 1. A digest of the protocol: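 Membranes from HEK293 cells transiently expressing human α5β3γ2 GABAA receptors, in Krebs-tris buffer pH 7.5, competed against [3H]flumazenil for 1 hour at 4° C to equilibrium. Bound radioactivity collected on GF/C filters and counted by liquid scintillation; Ki values are means of two determinations.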

Assay [2] addresses T1, h-GABA-A α5β3γ2. Briefly: Two-electrode voltage clamp electrophysiology in Xenopus laevis oocytes expressing GABAA receptors, modulation of GABA EC20 current. The format is cell-based. Set-up: host or cells: Xenopus laevis oocytes micro-injected with RNA transcripts of the subunits. As to conditions: Table 1; for Efficacy (GABA) %: % modulation of GABA EC20 = 100*(Fold increase-1); for Fold increase h-GABA-A α5β3γ2 oocyte: test compound at approx. 30 fold its Ki, GABA at EC20. In short, it runs like this:
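Human α5β3γ2 GABAA receptors were expressed in Xenopus oocytes by RNA injection, with γ2 RNA 5–10-fold higher, and recorded 3–5 days later by two-electrode voltage clamp at −80 mV at room temperature. The test compound, at about 30× its Ki, was co-applied during a second GABA EC20 pulse. Efficacy is the extremum of the point-by-point ratio to the first response, expressed as 100*(Fold increase−1).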
(In general: Two-electrode voltage clamp is typically applied to oocytes expressing channels or transporters.)

Molecules are shown by their SMILES.

For `Cc1ccc(-c2noc(C)c2Cn2ncc(-c3ccc(OC(F)F)nc3)cc2=O)cn1` [Example 149, 5-(6-(difluoromethoxy)pyridin-3-yl)-2-((5-methyl-3-(6-methylpyridin-3-yl)isoxazol-4-yl)methyl)pyridazin-3(2H)-one], the Ki (commonly the equilibrium dissociation constant of an inhibitor or competing ligand from its target) at h-GABA-A α5β3γ2 [1] came to 20.2 nM. Moreover, on h-GABA-A α5β3γ2 [2], the “Efficacy (GABA) %” value worked out at 89% and the “Fold increase h-GABA-A α5β3γ2 oocyte” value is recorded as 1.89.

In turn, `Cc1ccc(-c2noc(C)c2Cn2ncc(N3CCN[C@@H](C)C3)cc2=O)cn1` [Example 51, 2-[[5-methyl-3-(6-methyl-3-pyridyl)isoxazol-4-yl]methyl]-5-[(3S)-3-methylpiperazin-1-yl]pyridazin-3-one] showed a Ki at h-GABA-A α5β3γ2 [1] of 3.3 nM. Also, on h-GABA-A α5β3γ2 [2], the “Efficacy (GABA) %” value came to 182% and the “Fold increase h-GABA-A α5β3γ2 oocyte” value is reported as 2.82.

The compound `Cc1onc(-c2ccc(Cl)nc2)c1Cn1ncc(N2CC(OC3CCC3)C2)cc1=O` [Example 253, 2-((3-(6-chloropyridin-3-yl)-5-methylisoxazol-4-yl)methyl)-5-(3-cyclobutoxyazetidin-1-yl)pyridazin-3(2H)-one] returned a Ki at h-GABA-A α5β3γ2 [1] of 31 nM. For the same compound, at h-GABA-A α5β3γ2 [2], the “Efficacy (GABA) %” value came to 156% and the “Fold increase h-GABA-A α5β3γ2 oocyte” value worked out at 2.56.

In turn, `CCOC1CN(c2cnn(Cc3c(-c4ccc(C)nn4)noc3C)c(=O)c2)C1` [Example 170, 5-(3-ethoxyazetidin-1-yl)-2-[[5-methyl-3-(6-methylpyridazin-3-yl)isoxazol-4-yl]methyl]pyridazin-3-one] gave a Ki on h-GABA-A α5β3γ2 [1] of 2.2 nM. On h-GABA-A α5β3γ2 [2], the “Efficacy (GABA) %” value was 111% and the “Fold increase h-GABA-A α5β3γ2 oocyte” value is on record as 2.11.

The compound `CO[C@@H]1CN(c2cnn(Cc3c(-c4ccc(C)nc4)noc3C)c(=O)c2)[C@@H]1C` [Example 194, 5-[(2R,3R)-3-methoxy-2-methyl-azetidin-1-yl]-2-[[5-methyl-3-(6-methyl-3-pyridyl)isoxazol-4-yl]methyl]pyridazin-3-one] showed an inhibitory constant (Ki) at h-GABA-A α5β3γ2 [1] of 10.8 nM. Moreover, on h-GABA-A α5β3γ2 [2], the “Efficacy (GABA) %” value is on record as 152% and the “Fold increase h-GABA-A α5β3γ2 oocyte” value came out at 2.52.

As to `Cc1ccc(-c2noc(C)c2Cn2ncc(-c3ccc(OC(C)C)nc3)cc2=O)cn1` [Example 190, 5-(6-isopropoxy-3-pyridyl)-2-((5-methyl-3-(6-methyl-3-pyridyl)isoxazol-4-yl)methyl)pyridazin-3-one], the inhibition constant Ki at h-GABA-A α5β3γ2 [1] is 25.2 nM. Also, at h-GABA-A α5β3γ2 [2], the “Efficacy (GABA) %” value is reported as 146% and the “Fold increase h-GABA-A α5β3γ2 oocyte” value was determined as 2.46.

`Cc1ccc(-c2noc(C)c2Cn2ncc(N3CC(C#N)C3)cc2=O)cn1` [Example 85, 1-[1-[[5-methyl-3-(6-methyl-3-pyridyl)isoxazol-4-yl]methyl]-6-oxo-pyridazin-4-yl]azetidine-3-carbonitrile]: the affinity at h-GABA-A α5β3γ2 [1], expressed as Ki, was 18.1 nM. At h-GABA-A α5β3γ2 [2], the “Efficacy (GABA) %” value was determined as 134% and the “Fold increase h-GABA-A α5β3γ2 oocyte” value stood at 2.34.

As to `C[C@@H]1CN(c2cnn(Cc3conc3-c3ccc(C(F)(F)F)nc3)c(=O)c2)C[C@H](C)O1` [Example 72, 5-(cis-2,6-dimethylmorpholin-4-yl)-2-[[3-[6-(trifluoromethyl)-3-pyridyl]isoxazol-4-yl]methyl]pyridazin-3-one], at h-GABA-A α5β3γ2 [1], the affinity, expressed as Ki, was 40.2 nM. Besides, at h-GABA-A α5β3γ2 [2], the “Efficacy (GABA) %” value is listed as 167% and the “Fold increase h-GABA-A α5β3γ2 oocyte” value came out at 2.67.

The compound `Cc1ccc(-c2nocc2Cn2ncc(N3CCO[C@@H](C)C3)cc2=O)cn1` [Example 91, 5-[(2S)-2-methylmorpholin-4-yl]-2-[[3-(6-methyl-3-pyridyl)isoxazol-4-yl]methyl]pyridazin-3-one] gave a Ki on h-GABA-A α5β3γ2 [1] of 21.7 nM. Further, at h-GABA-A α5β3γ2 [2], the “Efficacy (GABA) %” value worked out at 157% and the “Fold increase h-GABA-A α5β3γ2 oocyte” value was found to be 2.57.

On h-GABA-A α5β3γ2 [1], `Cc1ccc(-c2noc(C)c2Cn2ncc(N3CC4(C[C@@H](O)CO4)C3)cc2=O)cn1` [Example 132, 5-[(7R)-7-hydroxy-5-oxa-2-azaspiro[3.4]octan-2-yl]-2-[[5-methyl-3-(6-methyl-3-pyridyl)isoxazol-4-yl]methyl]pyridazin-3-one] registered an inhibition constant Ki of 19.5 nM. In addition, on h-GABA-A α5β3γ2 [2], the “Efficacy (GABA) %” value is reported as 119% and the “Fold increase h-GABA-A α5β3γ2 oocyte” value turned out to be 2.19.

For `COC1CC2(C1)CN(c1cnn(Cc3c(-c4ccc(Cl)nc4)noc3C)c(=O)c1)C2` [Example 303], at h-GABA-A α5β3γ2 [1], the inhibition constant Ki worked out at 23.7 nM. On h-GABA-A α5β3γ2 [2], the “Efficacy (GABA) %” value is on record as 138% and the “Fold increase h-GABA-A α5β3γ2 oocyte” value is given as 2.38.

Turning to `Cc1ccc(-c2noc(C)c2Cn2ncc(N3CC(Oc4ccnc(Cl)c4)C3)cc2=O)nn1` [Example 236, 5-[3-[(2-chloro-4-pyridyl)oxy]azetidin-1-yl]-2-[[5-methyl-3-(6-methylpyridazin-3-yl)isoxazol-4-yl]methyl]pyridazin-3-one], at h-GABA-A α5β3γ2 [1], the affinity, expressed as Ki, was 2.9 nM. Also, at h-GABA-A α5β3γ2 [2], the “Efficacy (GABA) %” value is 136% and the “Fold increase h-GABA-A α5β3γ2 oocyte” value is given as 2.36.

Consider `Cc1ccc(-c2noc(C)c2Cn2ncc(N3CC4(CCC(C)CO4)C3)cc2=O)nn1` (single isomer, unassigned) [Example 313], for which the inhibition constant (Ki) at h-GABA-A α5β3γ2 [1] was 7.9 nM. On h-GABA-A α5β3γ2 [2], the “Efficacy (GABA) %” value was 103% and the “Fold increase h-GABA-A α5β3γ2 oocyte” value is 2.03.

In turn, `CCO[C@H]1CN(c2cnn(Cc3c(-c4ccc(Cl)nc4)noc3C)c(=O)c2)[C@H]1C` [Example 291, 2-((3-(6-chloropyridin-3-yl)-5-methylisoxazol-4-yl)methyl)-5-((2S,3S)-3-ethoxy-2-methylazetidin-1-yl)pyridazin-3(2H)-one] returned a Ki at h-GABA-A α5β3γ2 [1] of 2.8 nM. Further, at h-GABA-A α5β3γ2 [2], the “Efficacy (GABA) %” value amounted to 124% and the “Fold increase h-GABA-A α5β3γ2 oocyte” value is recorded as 2.24.

`Cc1ccc(-c2noc(CF)c2Cn2ncc(N3CC4(CCC(F)CO4)C3)cc2=O)nn1` (single isomer, unassigned) [Example 329] gave a Ki at h-GABA-A α5β3γ2 [1] of 58.7 nM. Also, on h-GABA-A α5β3γ2 [2], the “Efficacy (GABA) %” value was found to be 164% and the “Fold increase h-GABA-A α5β3γ2 oocyte” value came out at 2.64.

On h-GABA-A α5β3γ2 [1], `Cc1ccc(-c2noc(C)c2Cn2ncc(N3CC(OC4CC4)C3)cc2=O)cn1` [Example 136, 5-[3-(cyclopropoxy)azetidin-1-yl]-2-[[5-methyl-3-(6-methyl-3-pyridyl)isoxazol-4-yl]methyl]pyridazin-3-one] displayed an inhibition constant Ki of 5.2 nM. Moreover, on h-GABA-A α5β3γ2 [2], the “Efficacy (GABA) %” value is 96% and the “Fold increase h-GABA-A α5β3γ2 oocyte” value stood at 1.96.

On h-GABA-A α5β3γ2 [1], `Cc1ccc(-c2noc(C)c2Cn2ncc(-c3ccc(OC(C)C)cc3)cc2=O)cn1` [Example 115, 5-(4-isopropoxyphenyl)-2-((5-methyl-3-(6-methyl-3-pyridyl)isoxazol-4-yl)methyl)pyridazin-3-one] registered a Ki of 10.4 nM. At h-GABA-A α5β3γ2 [2], the “Efficacy (GABA) %” value is recorded as 87% and the “Fold increase h-GABA-A α5β3γ2 oocyte” value amounted to 1.87.

Turning to `Cc1ccc(-c2noc(C)c2Cn2ncc(N3CC4(CC(C(F)(F)F)CCO4)C3)cc2=O)nn1` (single isomer, unassigned) [Example 312], at h-GABA-A α5β3γ2 [1], the affinity, expressed as Ki, was 6.5 nM. Further, at h-GABA-A α5β3γ2 [2], the “Efficacy (GABA) %” value was determined as 127% and the “Fold increase h-GABA-A α5β3γ2 oocyte” value came out at 2.27.

Compound `Cc1ccc(-c2noc(C)c2Cn2ncc(N3CCN(CC(F)(F)F)CC3)cc2=O)cn1` [Example 31, 2-[[5-methyl-3-(6-methyl-3-pyridyl)isoxazol-4-yl]methyl]-5-[4-(2,2,2-trifluoroethyl)piperazin-1-yl]pyridazin-3-one] showed a Ki on h-GABA-A α5β3γ2 [1] of 13.5 nM. Further, at h-GABA-A α5β3γ2 [2], the “Efficacy (GABA) %” value came to 145% and the “Fold increase h-GABA-A α5β3γ2 oocyte” value is recorded as 2.45.

`Cc1onc(-c2ccc(Cl)nc2)c1Cn1ncc(N2CC(OC(F)(F)F)C2)cc1=O` [Example 251, 2-((3-(6-chloropyridin-3-yl)-5-methylisoxazol-4-yl)methyl)-5-(3-(trifluoromethoxy)azetidin-1-yl)pyridazin-3(2H)-one] had a Ki at h-GABA-A α5β3γ2 [1] of 16.6 nM. Moreover, on h-GABA-A α5β3γ2 [2], the “Efficacy (GABA) %” value is 83% and the “Fold increase h-GABA-A α5β3γ2 oocyte” value worked out at 1.83.

Turning to `CNc1cnn(Cc2c(-c3ccc(C)nc3)noc2C)c(=O)c1` [Example 78, 2-((5-methyl-3-(6-methylpyridin-3-yl)isoxazol-4-yl)methyl)-5-(methylamino)pyridazin-3(2H)-one], the affinity at h-GABA-A α5β3γ2 [1] corresponds to a Ki of 64.6 nM. On h-GABA-A α5β3γ2 [2], the “Efficacy (GABA) %” value was found to be 92% and the “Fold increase h-GABA-A α5β3γ2 oocyte” value was 1.92.

`COc1cc(-c2cnn(Cc3c(-c4ncc(C(F)(F)F)cn4)noc3C)c(=O)c2)ccn1` [Example 228, 5-(2-methoxypyridin-4-yl)-2-((5-methyl-3-(5-(trifluoromethyl)pyrimidin-2-yl)isoxazol-4-yl)methyl)pyridazin-3(2H)-one] yielded a Ki on h-GABA-A α5β3γ2 [1] of 3.8 nM. Besides, on h-GABA-A α5β3γ2 [2], the “Efficacy (GABA) %” value is listed as 41% and the “Fold increase h-GABA-A α5β3γ2 oocyte” value is reported as 1.41.

For the compound `CCc1nccn1C1CCN(c2cnn(Cc3c(-c4ccc(C)nc4)noc3C)c(=O)c2)CC1` [Example 109, 5-[4-(2-ethylimidazol-1-yl)-1-piperidyl]-2-[[5-methyl-3-(6-methyl-3-pyridyl)isoxazol-4-yl]methyl]pyridazin-3-one], the inhibition constant (Ki) at h-GABA-A α5β3γ2 [1] turned out to be 2.2 nM. For the same compound, at h-GABA-A α5β3γ2 [2], the “Efficacy (GABA) %” value was 107% and the “Fold increase h-GABA-A α5β3γ2 oocyte” value is 2.07.

As for `Cc1ccc(-c2noc(C)c2Cn2ncc(N3CCN(C(=O)C4(C)CC4)CC3)cc2=O)cn1` [Example 10, 2-((5-methyl-3-(6-methylpyridin-3-yl)isoxazol-4-yl)methyl)-5-(4-(1-methylcyclopropanecarbonyl)piperazin-1-yl)pyridazin-3(2H)-one], at h-GABA-A α5β3γ2 [1], the inhibition constant (Ki) turned out to be 21.9 nM. Further, on h-GABA-A α5β3γ2 [2], the “Efficacy (GABA) %” value is 222% and the “Fold increase h-GABA-A α5β3γ2 oocyte” value stood at 3.22.
